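Test compounds were applied to cells in 96-well plates for 48 hours at 5 doses. The concentration for full growth arrest is given as TGI.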
Legend:
Assay in all cases: DTP human tumour cell line panel, 48 h
SNB-19 CNS = test system: SNB-19 CNS
MOLT-4 leukemia = test system: MOLT-4 leukemia
KM12 colon = test system: KM12 colon
SNB-75 CNS = test system: SNB-75 CNS
SK-MEL-28 melanoma = test system: SK-MEL-28 melanoma
HL-60(TB) leukemia = test system: HL-60(TB) leukemia
MALME-3M melanoma = test system: MALME-3M melanoma
T-47D breast = test system: T-47D breast
CCRF-CEM leukemia = test system: CCRF-CEM leukemia
SN12C renal = test system: SN12C renal
NCI-H460 lung = test system: NCI-H460 lung
MDA-MB-231 breast = test system: MDA-MB-231 breast
UO-31 renal = test system: UO-31 renal
786-0 renal = test system: 786-0 renal
HCT-116 colon = test system: HCT-116 colon
LOX IMVI melanoma = test system: LOX IMVI melanoma
IGROV1 ovarian = test system: IGROV1 ovarian
OVCAR-3 ovarian = test system: OVCAR-3 ovarian
SF-295 CNS = test system: SF-295 CNS
DU-145 prostate = test system: DU-145 prostate
U251 CNS = test system: U251 CNS
OVCAR-5 ovarian = test system: OVCAR-5 ovarian
NCI-H522 lung = test system: NCI-H522 lung
CAKI-1 renal = test system: CAKI-1 renal
MDA-MB-435 = test system: MDA-MB-435
HCT-15 colon = test system: HCT-15 colon
NCI-H23 lung = test system: NCI-H23 lung
HS 578T breast = test system: HS 578T breast
PC-3 prostate = test system: PC-3 prostate
RPMI-8226 leukemia = test system: RPMI-8226 leukemia
MCF7 breast = test system: MCF7 breast
TK-10 renal = test system: TK-10 renal
A549 NSCLC = test system: A549 NSCLC
HOP-62 NSCLC = test system: HOP-62 NSCLC
A498 renal = test system: A498 renal
HOP-92 NSCLC = test system: HOP-92 NSCLC
HT29 colon = test system: HT29 colon
SF-539 CNS = test system: SF-539 CNS
UACC-257 melanoma = test system: UACC-257 melanoma
SK-MEL-5 melanoma = test system: SK-MEL-5 melanoma
ACHN renal = test system: ACHN renal
SF-268 CNS = test system: SF-268 CNS
K-562 leukemia = test system: K-562 leukemia
SW-620 colon = test system: SW-620 colon
SR leukemia = test system: SR leukemia
OVCAR-4 ovarian = test system: OVCAR-4 ovarian
UACC-62 melanoma = test system: UACC-62 melanoma
SK-MEL-2 melanoma = test system: SK-MEL-2 melanoma
NCI/ADR-RES ovarian = test system: NCI/ADR-RES ovarian
EKVX NSCLC = test system: EKVX NSCLC
COLO 205 colon = test system: COLO 205 colon
OVCAR-8 ovarian = test system: OVCAR-8 ovarian
NCI-H226 lung = test system: NCI-H226 lung
MDA-N = test system: MDA-N
M14 melanoma = test system: M14 melanoma
HCC-2998 colon = test system: HCC-2998 colon
SK-OV-3 ovarian = test system: SK-OV-3 ovarian

Structure (SMILES): CC(=O)c1sc2c(c1OC(=O)c1ccc(Cl)cc1Cl)c(=O)n(-c1ccccc1)c(=S)n2-c1ccccc1
- TGI (SNB-19 CNS): 14.2 µM
- TGI (MOLT-4 leukemia): 2.35 µM
- TGI (KM12 colon): 27 µM
- TGI (SNB-75 CNS): 4.19 µM
- TGI (SK-MEL-28 melanoma): > 48.1 µM
- TGI (HL-60(TB) leukemia): 18.9 µM
- TGI (MALME-3M melanoma): 0.841 µM
- TGI (T-47D breast): 82.3 µM
- TGI (CCRF-CEM leukemia): 4.99 µM
- TGI (SN12C renal): 4.35 µM
- TGI (NCI-H460 lung): 14.3 µM
- TGI (MDA-MB-231 breast): 11.7 µM
- TGI (UO-31 renal): 4.48 µM
- TGI (786-0 renal): 29.6 µM
- TGI (HCT-116 colon): 37.5 µM
- TGI (LOX IMVI melanoma): 1.19 µM
- TGI (IGROV1 ovarian): 36.1 µM
- TGI (OVCAR-3 ovarian): 39 µM
- TGI (SF-295 CNS): 6.51 µM
- TGI (DU-145 prostate): > 100 µM
- TGI (U251 CNS): 25.6 µM
- TGI (OVCAR-5 ovarian): 8.96 µM
- TGI (NCI-H522 lung): 15.1 µM
- TGI (CAKI-1 renal): 25.7 µM
- TGI (MDA-MB-435): 31.9 µM
- TGI (HCT-15 colon): 11.2 µM
- TGI (NCI-H23 lung): 35.3 µM
- TGI (HS 578T breast): 1.4 µM
- TGI (PC-3 prostate): 13.7 µM
- TGI (RPMI-8226 leukemia): 0.64 µM
- TGI (MCF7 breast): 47.1 µM
- TGI (TK-10 renal): 58.2 µM
- TGI (A549 NSCLC): > 90 µM
- TGI (HOP-62 NSCLC): 16.7 µM
- TGI (A498 renal): 1.4 µM
- TGI (HOP-92 NSCLC): 16.5 µM
- TGI (HT29 colon): 3.01 µM
- TGI (SF-539 CNS): 0.908 µM
- TGI (UACC-257 melanoma): 30 µM
- TGI (SK-MEL-5 melanoma): 7.17 µM
- TGI (ACHN renal): 5.21 µM
- TGI (SF-268 CNS): 13.7 µM
- TGI (K-562 leukemia): 46.1 µM
- TGI (SW-620 colon): 48.2 µM
- TGI (SR leukemia): > 100 µM
- TGI (OVCAR-4 ovarian): 54 µM
- TGI (UACC-62 melanoma): 29.2 µM
- TGI (SK-MEL-2 melanoma): 1.41 µM
- TGI (NCI/ADR-RES ovarian): 20.2 µM
- TGI (EKVX NSCLC): 49.7 µM
- TGI (COLO 205 colon): 15 µM
- TGI (OVCAR-8 ovarian): 5.73 µM
- TGI (NCI-H226 lung): 2.53 µM
- TGI (MDA-N): 20 µM
- TGI (M14 melanoma): 2.35 µM
- TGI (HCC-2998 colon): 22.2 µM
- TGI (SK-OV-3 ovarian): 7.77 µM

Source: PubChem BioAssay (NCI)
